Data as given in PubChem BioAssay AID1963983 (Molecular Pharmacology Branch, DTP, NCI, 2024).
Several values for one entry are separate records, joined by “and”; a condition that tells them apart may be missing. Equal entries are not always repeated.

Tested on: 186277-243-T-J2-PDC multi-cell spheroid viability
Test: Anticancer human tumor 186277-243-T-J2-PDC patient-derived colon adenocarcinoma cell line growth inhibition [PI3K]
Conditions: for viability, T/C: stronger effect = lower value
Text: Combinatorial screen of targeted agents with the PI3K inhibitors inavolisib, alpelisib, duvelisib, and copanlisib in multi-cell type tumor spheroids
A high-throughput screen of multi-cell type tumor spheroids was designed to identify active combinations of targeted small molecules and PI3K pathway inhibitors. Complex spheroids include a stromal component modeled by human endothelial cells (HUVEC) and fibroblasts modeled by human mesenchymal stem cells (MSCs). The concentration ranges selected for each drug and investigational agent were based upon clinically achievable concentrations if the clinical Cmax of the agent was known.
Compounds. The drugs and investigational agents: inavolisib (NSC800729), alpelisib (NSC765974), duvelisib (NSC772469), copanlisib (NSC816437), ipatasertib (NSC767898), afuresertib (NSC778305), talazoparib (NSC767125), sapanisertib (NSC764658), selumetinib (NSC741078), tovorafenib (DAY101, NSC766906), vemurafenib (NSC761431), ravoxertinib (NSC781343), sotorasib (NSC818433), MRTX1133 (NSC 836407), abemaciclib (NSC 768073), palbociclib (NSC758247), venetoclax (NSC 766270), SY5609 (NSC837396), enzalutamide (NSC755605), and darolutamide (NSC825331), were obtained from the National Cancer Institute (NCI) Developmental Therapeutics Program Chemical Repository. The FDA-approved anticancer drug set is available from the NCI Developmental Therapeutics Program. […] The stock solutions were prepared in dimethyl sulfoxide (DMSO, Sigma-Aldrich, St. Louis, MO, cat. D2650) at 800-fold the tested concentration and stored at -70 degrees C prior to their use. All drugs and investigational agents were tested over a range starting from a high concentration at or near the clinical Cmax and decreasing in half-log increments. If the clinical Cmax for an agent had not been determined, the highest concentration tested was 10 microM.
Cell Culture. All cells were maintained in an incubator at 37 degrees C and 5% CO2 with 95% humidity. The PDC lines were cultured according to standard operating procedures established by the NCI PDMR (https://pdmr.cancer.gov/sops/default.htm). All PDCs were thawed and cultured in Matrigel-coated flasks prepared with a working solution of 1X Ham's F-12 nutrient mix, without supplementation (Invitrogen, Waltham, MA, cat. 11765054), 100 U/mL penicillin-streptomycin (Invitrogen, cat. 15140122), and 2.5% Matrigel (Corning Inc., Corning, NY, cat. 354248) for the first three passages. The 354836-022-R-J1-PDC, 475296-252-R-J1-PDC, and 997726-040-R-J2-PDC lines were cultured in 6A media, which includes advanced DMEM/F-12 (Thermo Fisher Scientific, cat. 12634028), 10 mM HEPES (Thermo Fisher Scientific, cat. 15630080), 1X GlutaMAX supplement (Thermo Fisher Scientific, cat. 35050061), 0.1 mg/mL primocin (InvivoGen, San Diego, CA, cat. ant-pm-2), 10% defined fetal bovine serum, heat inactivated (HyClone Laboratories Inc., Logan, UT, cat. SH30070.03HI), 50% L-WRN conditioned media (ATCC, cat. CRL-3276), 1.25 mM N-Acetyl-L-cysteine (Sigma-Aldrich, cat. A9165), 10 mM nicotinamide (Sigma-Aldrich, cat. N0636), 1X B-27 supplement (Thermo Fisher Scientific, cat. 17504044), 1X N-2 supplement (Thermo Fisher Scientific, cat. 17502048), and 10 microM Y-27632 dihydrochloride (Tocris Bioscience, Bristol, United Kingdom, cat. 1254). The 624824-186-R-J2-PDC line was cultured in 6C/Colon 1B media, which includes all 6A media components plus 50 ng/mL human EGF recombinant protein (Thermo Fisher Scientific, cat. PHG0311). […]
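Also: spheroids exposed to compounds for seven days before viability reading.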
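For viability, T/C in this document: 100% = DMSO vehicle control viability.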

For Cn1cnc2c(F)c(Nc3ccc(Br)cc3Cl)c(C(=O)NOCCO)cc21 + Cc1nc(NC(=O)N2CCCC2C(N)=O)sc1-c1ccnc(C(C)(C)C(F)(F)F)c1, the IC50 (curve of first compound, second compound 0.0316 µM) was 117 nM, the IC50 (curve of first compound, second compound 0.1 µM) was 66.7 nM and the IC50 (curve of first compound, second compound 0.316 µM) was 34.1 nM. For the same compound, the IC50 (curve of first compound, second compound 1 µM) was less than 9.49 nM, the IC50 (curve of first compound, second compound 3.16 µM) was less than 9.49 nM and the IC50 (curve of first compound, second compound 10 µM) was less than 9.49 nM. The viability, T/C (second compound 0.0316 µM, first compound 0.00949 µM) was 107%, the viability, T/C (second compound 0.0316 µM, first compound 0.03 µM) was 80.3% and the viability, T/C (second compound 0.0316 µM, first compound 0.0949 µM) was 52.4%. For the same compound, the viability, T/C (second compound 0.0316 µM, first compound 0.3 µM) was 34.5%, the viability, T/C (second compound 0.0316 µM, first compound 0.949 µM) was 16.1% and the viability, T/C (second compound 0.0316 µM, first compound 3 µM) was 6.83%. It also gave a viability, T/C (second compound 0.1 µM, first compound 0.00949 µM) of 100%, a viability, T/C (second compound 0.1 µM, first compound 0.03 µM) of 67.8% and a viability, T/C (second compound 0.1 µM, first compound 0.0949 µM) of 42.1%. For the same compound, the viability, T/C (second compound 0.1 µM, first compound 0.3 µM) was 25.4%, the viability, T/C (second compound 0.1 µM, first compound 0.949 µM) was 13% and the viability, T/C (second compound 0.1 µM, first compound 3 µM) was 9.02%. The viability, T/C (second compound 0.316 µM, first compound 0.00949 µM) was 76.8%, the viability, T/C (second compound 0.316 µM, first compound 0.03 µM) was 53.5% and the viability, T/C (second compound 0.316 µM, first compound 0.0949 µM) was 28.9%. It also gave a viability, T/C (second compound 0.316 µM, first compound 0.3 µM) of 18.5%, a viability, T/C (second compound 0.316 µM, first compound 0.949 µM) of 8.47% and a viability, T/C (second compound 0.316 µM, first compound 3 µM) of 3.53%. It also gave a viability, T/C (second compound 1 µM, first compound 0.00949 µM) of 48.1%, a viability, T/C (second compound 1 µM, first compound 0.03 µM) of 28.6% and a viability, T/C (second compound 1 µM, first compound 0.0949 µM) of 16.6%. For the same compound, the viability, T/C (second compound 1 µM, first compound 0.3 µM) was 5.87%, the viability, T/C (second compound 1 µM, first compound 0.949 µM) was 4.04% and the viability, T/C (second compound 1 µM, first compound 3 µM) was 1.48%. The viability, T/C (second compound 3.16 µM, first compound 0.00949 µM) was 23%, the viability, T/C (second compound 3.16 µM, first compound 0.03 µM) was 10.6% and the viability, T/C (second compound 3.16 µM, first compound 0.0949 µM) was 5.72%. The viability, T/C (second compound 3.16 µM, first compound 0.3 µM) was 3.73%, the viability, T/C (second compound 3.16 µM, first compound 0.949 µM) was 2.72% and the viability, T/C (second compound 3.16 µM, first compound 3 µM) was 0.62%. For the same compound, the viability, T/C (second compound 10 µM, first compound 0.00949 µM) was 3.43%, the viability, T/C (second compound 10 µM, first compound 0.03 µM) was 3.24% and the viability, T/C (second compound 10 µM, first compound 0.0949 µM) was 1.7%. It also gave a viability, T/C (second compound 10 µM, first compound 0.3 µM) of 2.06%, a viability, T/C (second compound 10 µM, first compound 0.949 µM) of 1.21% and a viability, T/C (second compound 10 µM, first compound 3 µM) of 0.89%.
In the case of Cn1cnc2c(F)c(Nc3ccc(Br)cc3Cl)c(C(=O)NOCCO)cc21, the viability, T/C (compound 0.00949 µM) is reported as 97.9% [middle of 4 runs], the viability, T/C (compound 0.03 µM) is reported as 87.4% [middle of 4 runs] and the viability, T/C (compound 0.0949 µM) is reported as 61.9% [middle of 4 runs]. The viability, T/C (compound 0.3 µM) was 38% and 43.4% (2×) and 37.6%, the viability, T/C (compound 0.949 µM) was 22.7% [middle of 4 runs] and the viability, T/C (compound 3 µM) was 9.95% [middle of 4 runs]. For the same compound, the IC50 (curve of compound) was 193 nM [middle of 4 runs].
